Measurements as given in patent publication US20250026778A1 (TIUMBIO CO., LTD., priority 2021, published 2025).

These molecules were tested against T1, his-galectin-3 (Homo sapiens, UniProt P17931) (assay: TR-FRET assay (in vitro galectin-3 binding inhibitory activity test)). Settings: Table 1; compound at 20 μM; 60 nM his-galectin-3, 15 nM biotin-ASF; read-out: % Inhibitory activity (at 20 μM).
T1 construct: purchased Abcam
T1 sequence (P17931 whole entry): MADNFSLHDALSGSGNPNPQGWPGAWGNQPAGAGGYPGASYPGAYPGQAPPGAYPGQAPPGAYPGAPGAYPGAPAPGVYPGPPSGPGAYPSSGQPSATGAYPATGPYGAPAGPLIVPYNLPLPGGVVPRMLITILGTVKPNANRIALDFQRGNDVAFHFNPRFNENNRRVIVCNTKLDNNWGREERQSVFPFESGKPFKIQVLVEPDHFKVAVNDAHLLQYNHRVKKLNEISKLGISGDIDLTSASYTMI
In short: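 Compound is premixed with his-galectin-3 (60 nM final), then biotin-ASF (15 nM), Tb anti-His antibody (2 nM) and streptavidin-d2 (20 nM) are added. After at least 3.5 hours at RT in HEPES/NaCl buffer with Tween 20 and BSA, TR-FRET is read at 615/665 nm. DMSO serves as the uninhibited control, ASF omission as background.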
`O=C(O[C@@H]1[C@@H](n2cc(-c3cc(F)c(F)c(F)c3)nn2)[C@@H](O)[C@@H](CO)O[C@@]12CCCO2)c1cccc(F)c1F` [Compound A71, (5S,7R,8R,9S,10R)-8-hydroxy-7-(hydroxymethyl)-9-(4-(3,4,5-trifluorophenyl)-1H-1,2,3-triazol-1-yl)-1,6-dioxaspiro[4.5]decan-10-yl 2,3-difluorobenzoate] gave an inhibition at 20 µM of 25 to 50%. Work on `O=C(O[C@@H]1[C@@H](n2cc(-c3cc(F)c(F)c(F)c3)nn2)[C@@H](O)[C@@H](CO)O[C@@]12CCCO2)c1ccccn1` [Compound A72, (5S,7R,8R,9S,10R)-8-hydroxy-7-(hydroxymethyl)-9-(4-(3,4,5-trifluorophenyl)-1H-1,2,3-triazol-1-yl)-1,6-dioxaspiro[4.5]decan-10-yl picolinate] yielded an inhibition at 20 µM of 50 to 75%. In the case of `O=C(O[C@@H]1[C@@H](n2cc(-c3cc(F)c(F)c(F)c3)nn2)[C@@H](O)[C@@H](CO)O[C@@]12CCCO2)c1cccc(C(F)(F)F)c1` [Compound A73, (5S,7R,8R,9S,10R)-8-hydroxy-7-(hydroxymethyl)-9-(4-(3,4,5-trifluorophenyl)-1H-1,2,3-triazol-1-yl)-1,6-dioxaspiro[4.5]decan-10-yl 3-(trifluoromethyl)benzoate], the inhibition at 20 µM was < 25%. With `O=P(O)(O)O[C@@H]1[C@@H](n2cc(-c3cc(F)c(F)c(F)c3)nn2)[C@@H](O)[C@@H](CO)O[C@@]12CCCCO2` [Compound A76, (2R,3R,4S,5R,6S)-3-hydroxy-2-(hydroxymethyl)-4-(4-(3,4,5-trifluorophenyl)-1H-1,2,3-triazol-1-yl)-1,7-dioxaspiro[5.5]undecan-5-yl dihydrogen phosphate] the inhibition at 20 µM was 50 to 75%. `O=C(O[C@@H]1[C@@H](n2cc(-c3cc(F)c(F)c(F)c3)nn2)[C@@H](O)[C@@H](CO)O[C@@]12CCCO2)c1ncccc1F` [Compound A77, (5S,7R,8R,9S,10R)-8-hydroxy-7-(hydroxymethyl)-9-(4-(3,4,5-trifluorophenyl)-1H-1,2,3-triazol-1-yl)-1,6-dioxaspiro[4.5]decan-10-yl 3-fluoropicolinate] gave an inhibition at 20 µM of 25 to 50%. For `O=C(O[C@@H]1[C@@H](n2cc(-c3cc(F)c(F)c(F)c3)nn2)[C@@H](O)[C@@H](CO)O[C@@]12CCCO2)c1ccc(F)cc1F` [Compound A78, (5S,7R,8R,9S,10R)-8-hydroxy-7-(hydroxymethyl)-9-(4-(3,4,5-trifluorophenyl)-1H-1,2,3-triazol-1-yl)-1,6-dioxaspiro[4.5]decan-10-yl 2,4-difluorobenzoate], the inhibition at 20 µM was < 25%. In the case of `O=C(O[C@@H]1[C@@H](n2cc(-c3cc(F)c(F)c(F)c3)nn2)[C@@H](O)[C@@H](CO)O[C@@]12CCCO2)c1ccc(F)cc1` [Compound A79, (5S,7R,8R,9S,10R)-8-hydroxy-7-(hydroxymethyl)-9-(4-(3,4,5-trifluorophenyl)-1H-1,2,3-triazol-1-yl)-1,6-dioxaspiro[4.5]decan-10-yl 4-fluorobenzoate], the inhibition at 20 µM was < 25%. `O=C(O[C@@H]1[C@@H](n2cc(-c3cc(F)c(F)c(F)c3)nn2)[C@@H](O)[C@@H](CO)O[C@@]12CCCO2)c1ccncc1` [Compound A80, (5S,7R,8R,9S,10R)-8-hydroxy-7-(hydroxymethyl)-9-(4-(3,4,5-trifluorophenyl)-1H-1,2,3-triazol-1-yl)-1,6-dioxaspiro[4.5]decan-10-yl isonicotinate] gave an inhibition at 20 µM of 25 to 50%.

Same assay, conditions: read-out: % Inhibitory activity (at 20 μM), Table 1; compound at 20 μM; 60 nM his-galectin-3, 15 nM biotin-ASF
For `C[C@@H](O[C@@H]1[C@@H](n2cc(-c3cc(F)c(F)c(F)c3)nn2)[C@@H](O)[C@@H](CO)O[C@@]12CCCO2)C(=O)O` [Compound A82, (R)-2-(((5S,7R,8R,9S,10R)-8-hydroxy-7-(hydroxymethyl)-9-(4-(3,4,5-trifluorophenyl)-1H-1,2,3-triazol-1-yl)-1,6-dioxaspiro[4.5]decan-10-yl)oxy)propanoic acid], the inhibition at 20 µM was < 25%.
